Literature values as cited in patent US20130202712A1, “Compositions And Methods For Treating Or Preventing Immuno-Inflammatory Disease” (VINDICO NANOBIO TECHNOLOGY, INC., priority 2010, published 2013).

Settings: free resveratrol

Solubility in water: very low solubility in water
SMILES: Oc1ccc(C=Cc2cc(O)cc(O)c2)cc1 [resveratrol, 3,5,4′-trihydroxystilbene]
